Measurements reported in PubChem BioAssay AID1259407 (Chemical Carcinogenesis Research Information System (CCRIS), 2018).
Active and inactive are the calls of the source. No rule for the calls is given here.

System: CCRIS mutagenicity, Ames/micronucleus/aberration tests
Assay: CCRIS mutagenicity studies
[1] = Test System: AMES SALMONELLA TYPHIMURIUM, Strain/Indicator: TA98, Metabolic Activation: NONE, Method: STANDARD PLATE
[2] = Test System: AMES SALMONELLA TYPHIMURIUM, Strain/Indicator: TA100, Metabolic Activation: NONE, Method: STANDARD PLATE
[3] = Test System: AMES SALMONELLA TYPHIMURIUM, Strain/Indicator: TA1535, Metabolic Activation: NONE, Method: STANDARD PLATE
[4] = Test System: AMES SALMONELLA TYPHIMURIUM, Strain/Indicator: TA1537, Metabolic Activation: NONE, Method: STANDARD PLATE

Measured: mutagenic call

CN=C=O
inactive: Test System: AMES SALMONELLA TYPHIMURIUM, Strain/Indicator: TA97A, Metabolic Activation: NONE, Method: PREINCUBATION inactive; negative | Test System: AMES SALMONELLA TYPHIMURIUM, Strain/Indicator: TA97A, Metabolic Activation: RAT, LIVER, S-9, AROCLOR 1254, Method: PREINCUBATION inactive; negative | Test System: AMES SALMONELLA TYPHIMURIUM, Strain/Indicator: TA97A, Metabolic Activation: RAT, LIVER, S-9, BETA-NAPHTHOFLAVONE, Method: PREINCUBATION inactive; negative | Test System: AMES SALMONELLA TYPHIMURIUM, Strain/Indicator: TA97A, Metabolic Activation: RAT, LIVER, S-9, SODIUM PHENOBARBITONE, Method: PREINCUBATION inactive; negative | Test System: AMES SALMONELLA TYPHIMURIUM, Strain/Indicator: TA98, Metabolic Activation: HAMSTER, LIVER, S-9, AROCLOR 1254, Method: STANDARD PLATE inactive; negative | Test System: AMES SALMONELLA TYPHIMURIUM, Strain/Indicator: TA98, Metabolic Activation: NONE, Method: PREINCUBATION inactive; negative | [1] inactive; negative | Test System: AMES SALMONELLA TYPHIMURIUM, Strain/Indicator: TA98, Metabolic Activation: RAT, LIVER, S-9, AROCLOR 1254, Method: PREINCUBATION inactive; negative | Test System: AMES SALMONELLA TYPHIMURIUM, Strain/Indicator: TA98, Metabolic Activation: RAT, LIVER, S-9, AROCLOR 1254, Method: STANDARD PLATE inactive; negative | Test System: AMES SALMONELLA TYPHIMURIUM, Strain/Indicator: TA98, Metabolic Activation: RAT, LIVER, S-9, BETA-NAPHTHOFLAVONE, Method: PREINCUBATION inactive; negative | Test System: AMES SALMONELLA TYPHIMURIUM, Strain/Indicator: TA98, Metabolic Activation: RAT, LIVER, S-9, SODIUM PHENOBARBITONE, Method: PREINCUBATION inactive; negative | Test System: AMES SALMONELLA TYPHIMURIUM, Strain/Indicator: TA100, Metabolic Activation: HAMSTER, LIVER, S-9, AROCLOR 1254, Method: STANDARD PLATE inactive; negative | [2] inactive; negative | Test System: AMES SALMONELLA TYPHIMURIUM, Strain/Indicator: TA100, Metabolic Activation: RAT, LIVER, S-9, AROCLOR 1254, Method: PREINCUBATION inactive; negative | Test System: AMES SALMONELLA TYPHIMURIUM, Strain/Indicator: TA100, Metabolic Activation: RAT, LIVER, S-9, AROCLOR 1254, Method: STANDARD PLATE inactive; negative | Test System: AMES SALMONELLA TYPHIMURIUM, Strain/Indicator: TA100, Metabolic Activation: RAT, LIVER, S-9, BETA-NAPHTHOFLAVONE, Method: PREINCUBATION inactive; negative | Test System: AMES SALMONELLA TYPHIMURIUM, Strain/Indicator: TA100, Metabolic Activation: RAT, LIVER, S-9, SODIUM PHENOBARBITONE, Method: PREINCUBATION inactive; negative | Test System: AMES SALMONELLA TYPHIMURIUM, Strain/Indicator: TA102, Metabolic Activation: NONE, Method: PREINCUBATION inactive; negative | Test System: AMES SALMONELLA TYPHIMURIUM, Strain/Indicator: TA102, Metabolic Activation: RAT, LIVER, S-9, AROCLOR 1254, Method: PREINCUBATION inactive; negative | Test System: AMES SALMONELLA TYPHIMURIUM, Strain/Indicator: TA102, Metabolic Activation: RAT, LIVER, S-9, BETA-NAPHTHOFLAVONE, Method: PREINCUBATION inactive; negative | Test System: AMES SALMONELLA TYPHIMURIUM, Strain/Indicator: TA102, Metabolic Activation: RAT, LIVER, S-9, SODIUM PHENOBARBITONE, Method: PREINCUBATION inactive; negative | Test System: AMES SALMONELLA TYPHIMURIUM, Strain/Indicator: TA104, Metabolic Activation: RAT, LIVER, S-9, AROCLOR 1254, Method: PREINCUBATION inactive; negative | Test System: AMES SALMONELLA TYPHIMURIUM, Strain/Indicator: TA104, Metabolic Activation: RAT, LIVER, S-9, BETA-NAPHTHOFLAVONE, Method: PREINCUBATION inactive; negative | Test System: AMES SALMONELLA TYPHIMURIUM, Strain/Indicator: TA104, Metabolic Activation: RAT, LIVER, S-9, SODIUM PHENOBARBITONE, Method: PREINCUBATION inactive; negative | Test System: AMES SALMONELLA TYPHIMURIUM, Strain/Indicator: TA1535, Metabolic Activation: HAMSTER, LIVER, S-9, AROCLOR 1254, Method: STANDARD PLATE inactive; negative | [3] inactive; negative | Test System: AMES SALMONELLA TYPHIMURIUM, Strain/Indicator: TA1535, Metabolic Activation: RAT, LIVER, S-9, AROCLOR 1254, Method: STANDARD PLATE inactive; negative | Test System: AMES SALMONELLA TYPHIMURIUM, Strain/Indicator: TA1537, Metabolic Activation: HAMSTER, LIVER, S-9, AROCLOR 1254, Method: STANDARD PLATE inactive; negative | [4] inactive; negative | Test System: AMES SALMONELLA TYPHIMURIUM, Strain/Indicator: TA1537, Metabolic Activation: RAT, LIVER, S-9, AROCLOR 1254, Method: STANDARD PLATE inactive; negative | Test System: AMES SALMONELLA TYPHIMURIUM, Strain/Indicator: TA1538, Metabolic Activation: HAMSTER, LIVER, S-9, AROCLOR 1254, Method: STANDARD PLATE inactive; negative | Test System: AMES SALMONELLA TYPHIMURIUM, Strain/Indicator: TA1538, Metabolic Activation: NONE, Method: STANDARD PLATE inactive; negative | Test System: AMES SALMONELLA TYPHIMURIUM, Strain/Indicator: TA1538, Metabolic Activation: RAT, LIVER, S-9, AROCLOR 1254, Method: STANDARD PLATE inactive; negative | Test System: MOUSE LYMPHOMA, Strain/Indicator: L5178Y (TK+/TK-), Metabolic Activation: RAT, LIVER, S-9, AROCLOR 1254, Method: SUSPENSION/PLATE inactive; negative. reevaluation of results: negative

CC(C)[C@]12CC(=O)[C@H](C)[C@H]1C2
inactive: Test System: AMES SALMONELLA TYPHIMURIUM, Strain/Indicator: TA98, Metabolic Activation: HAMSTER LIVER S-9, AROCLOR 1254, Method: STANDARD PLATE inactive; negative | [1] inactive; negative | Test System: AMES SALMONELLA TYPHIMURIUM, Strain/Indicator: TA98, Metabolic Activation: RAT LIVER S-9, AROCLOR 1254, Method: STANDARD PLATE inactive; negative | Test System: AMES SALMONELLA TYPHIMURIUM, Strain/Indicator: TA100, Metabolic Activation: HAMSTER LIVER S-9, AROCLOR 1254, Method: STANDARD PLATE inactive; negative | [2] inactive; negative | Test System: AMES SALMONELLA TYPHIMURIUM, Strain/Indicator: TA100, Metabolic Activation: RAT LIVER S-9, AROCLOR 1254, Method: STANDARD PLATE inactive; negative | Test System: AMES SALMONELLA TYPHIMURIUM, Strain/Indicator: TA102, Metabolic Activation: HAMSTER LIVER S-9, AROCLOR 1254, Method: STANDARD PLATE inactive; negative | Test System: AMES SALMONELLA TYPHIMURIUM, Strain/Indicator: TA102, Metabolic Activation: NONE, Method: STANDARD PLATE inactive; negative | Test System: AMES SALMONELLA TYPHIMURIUM, Strain/Indicator: TA102, Metabolic Activation: RAT LIVER S-9, AROCLOR 1254, Method: STANDARD PLATE inactive; negative | Test System: AMES SALMONELLA TYPHIMURIUM, Strain/Indicator: TA1535, Metabolic Activation: HAMSTER LIVER S-9, AROCLOR 1254, Method: STANDARD PLATE inactive; negative | [3] inactive; negative | Test System: AMES SALMONELLA TYPHIMURIUM, Strain/Indicator: TA1535, Metabolic Activation: RAT LIVER S-9, AROCLOR 1254, Method: STANDARD PLATE inactive; negative | Test System: AMES SALMONELLA TYPHIMURIUM, Strain/Indicator: TA1537, Metabolic Activation: HAMSTER LIVER S-9, AROCLOR 1254, Method: STANDARD PLATE inactive; negative | [4] inactive; negative | Test System: AMES SALMONELLA TYPHIMURIUM, Strain/Indicator: TA1537, Metabolic Activation: RAT LIVER S-9, AROCLOR 1254, Method: STANDARD PLATE inactive; negative | Test System: Mouse lymphoma, Strain/Indicator: L5178Y (tk+/tk-), Metabolic Activation: None, Method: Suspension/plate inactive; negative
active: Test System: Mouse lymphoma, Strain/Indicator: L5178Y (tk+/tk-), Metabolic Activation: Rat, Liver, S-9, Aroclor 1254, Method: Suspension/plate active; equivocal (previous evaluation positive)
